For orientation: IC50 means the concentration needed to halve the response being measured.

This test concerns the target human recombinant GPR65 (Homo sapiens, UniProt Q8IYL9). The test is described as follows: Human GPR65 cAMP HTRF antagonist assay. The format is cell-based. Put shortly: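 Antagonism measured as suppression of the cAMP rise when pH is dropped to 7.2 (control wells pH 7.9) in 1321N1 cells stably carrying human GPR65. Cells in KRH with 1 mM IBMX and 200 μM EDTA saw compound 30 min, then acid stimulation 30 min; HTRF cAMP detection, normalised, 4-parameter logistic IC50.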
Background: Time-resolved FRET reads energy transfer from a long-lived donor to a nearby acceptor.

Where [1] appears, read: 1321N1-hrGPR65 cells, cAMP HTRF, assay pH 7.2, read-out: hGPR65 IC50 (Activity of selected compounds according to the invention).

Where two headings read alike, the source gives them in different places.

Chain of human recombinant GPR65 (Q8IYL9 whole entry): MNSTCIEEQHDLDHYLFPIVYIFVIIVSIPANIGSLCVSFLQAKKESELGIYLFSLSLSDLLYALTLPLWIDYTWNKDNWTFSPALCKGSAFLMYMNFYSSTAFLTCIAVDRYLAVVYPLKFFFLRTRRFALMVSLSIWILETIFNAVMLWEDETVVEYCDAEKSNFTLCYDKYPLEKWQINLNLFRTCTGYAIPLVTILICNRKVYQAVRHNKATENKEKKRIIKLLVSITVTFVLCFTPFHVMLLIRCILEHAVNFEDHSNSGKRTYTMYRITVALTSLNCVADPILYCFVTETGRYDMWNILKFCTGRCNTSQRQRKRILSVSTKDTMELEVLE

In the case of `COCCOc1cnc(F)c2c1[C@H]1CC[C@@H](C2)N1C(=O)Nc1cc(Cl)c(Cl)cc1F` [Compound 283, (5R,8S)—N-(4,5-Dichloro-2-fluorophenyl)-1-fluoro-4-(2-methoxyethoxy)-6,7,8,9-tetrahydro-5H-5,8-epiminocyclohepta[c]pyridine-10-carboxamide], under setting [1], the IC50 was in the range of 500 to 5000 nM.

For `O=C(Nc1nnc(C2CCCCC2)s1)N1[C@H]2CC[C@@H]1c1ccnc(F)c1C2` [Compound 285, (5R,8S)—N-(5-cyclohexyl-1,3,4-thiadiazol-2-yl)-1-fluoro-6,7,8,9-tetrahydro-5H-5,8-epiminocyclohepta[c]pyridine-10-carboxamide], the IC50 is less than 500 nM.

In the case of `O=C(Nc1cc(F)c(-c2ccc(C(F)(F)F)nc2)cc1F)N1[C@H]2CC[C@@H]1c1n[nH]c(=O)cc1C2` [Compound 286, (6S,9R)-N-(2,5-Difluoro-4-(6-(trifluoromethyl)pyridin-3-yl)phenyl)-3-oxo-3,5,6,7,8,9-hexahydro-2H-6,9-epiminocyclohepta[c]pyridazine-10-carboxamide], the IC50 was less than 500 nM.

With `O=C(Nc1cc(Cl)c(-c2ccc(OCCF)nc2)cc1F)N1[C@H]2CC[C@@H]1c1n[nH]c(=O)cc1C2` [Compound 291, (6S,9R)-N-(5-Chloro-2-fluoro-4-(6-(2-fluoroethoxy)pyridin-3-yl)phenyl)-3-oxo-3,5,6,7,8,9-hexahydro-2H-6,9-epiminocyclohepta[c]pyridazine-10-carboxamide], the IC50 is less than 500 nM.

On to `O=C(Nc1cc(Cl)c(-c2ccc(OC3CC(F)(F)C3)nc2)cc1F)N1[C@H]2CC[C@@H]1c1n[nH]c(=O)cc1C2` [Compound 292, (6S,9R)-N-(5-Chloro-4-(6-(3,3-difluorocyclobutoxy)pyridin-3-yl)-2-fluorophenyl)-3-oxo-3,5,6,7,8,9-hexahydro-2H-6,9-epiminocyclohepta[c]pyridazine-10-carboxamide], for which the IC50 was less than 500 nM.

Turning to `O=C(Nc1cc(Cl)c(COc2ccc(F)nc2)cc1F)N1[C@H]2CC[C@@H]1c1n[nH]c(=O)cc1C2` [Compound 293, (6S,9R)-N-(5-Chloro-2-fluoro-4-(((6-fluoropyridin-3-yl)oxy)methyl)phenyl)-3-oxo-3,5,6,7,8,9-hexahydro-2H-6,9-epiminocyclohepta[c]pyridazine-10-carboxamide], the IC50 is less than 500 nM.

Regarding `O=C(Nc1cc(Cl)c(Oc2ccc3nonc3c2)cc1F)N1[C@H]2CC[C@@H]1c1n[nH]c(=O)cc1C2` [Compound 294, (6S,9R)-N-(4-(Benzo[c][1,2,5]oxadiazol-5-yloxy)-5-chloro-2-fluorophenyl)-3-oxo-3,5,6,7,8,9-hexahydro-2H-6,9-epiminocyclohepta[c]pyridazine-10-carboxamide], the IC50 is less than 500 nM.

For `O=C(Nc1cc(Cl)c(C(F)(F)F)cc1F)N1[C@@H]2CC[C@H]1c1ccnc(F)c1[C@H]2F` [Compound 295, (5S,8R,9R)-N-(5-Chloro-2-fluoro-4-(trifluoromethyl)phenyl)-1,9-difluoro-6,7,8,9-tetrahydro-5H-5,8-epiminocyclohepta[c]pyridine-10-carboxamide], the IC50 is less than 500 nM.

`O=C(Nc1cc(Cl)c(C(F)(F)F)cc1F)N1[C@@H]2CC[C@H]1[C@@H](F)c1c2ccnc1F` [Compound 296, (5R,8S,9S)-N-(5-Chloro-2-fluoro-4-(trifluoromethyl)phenyl)-1,9-difluoro-6,7,8,9-tetrahydro-5H-5,8-epiminocyclohepta[c]pyridine-10-carboxamide]: the IC50 was less than 500 nM.

On to `COc1cnccc1-c1cc(F)c(NC(=O)N2[C@H]3CC[C@@H]2c2ccnc(F)c2C3)cc1Cl` [Compound 297, (5R,8S)-N-(5-Chloro-2-fluoro-4-(3-methoxypyridin-4-yl)phenyl)-1-fluoro-6,7,8,9-tetrahydro-5H-5,8-epiminocyclohepta[c]pyridine-10-carboxamide], for which the IC50 is less than 500 nM.

Take `COc1cnccc1-c1cc(F)c(NC(=O)N2[C@H]3CC[C@@H]2c2c[nH]c(=O)cc2C3)cc1Cl` [Compound 298, (6S,9R)-N-(5-Chloro-2-fluoro-4-(3-methoxypyridin-4-yl)phenyl)-3-oxo-3,5,6,7,8,9-hexahydro-2H-6,9-epiminocyclohepta[c]pyridine-10-carboxamide]: the IC50 fell in the range of 500 to 5000 nM.

`COc1cnccc1-c1cc(F)c(NC(=O)N2[C@H]3CC[C@@H]2c2n[nH]c(=O)cc2C3)cc1Cl` [Compound 299, (6S,9R)-N-(5-Chloro-2-fluoro-4-(3-methoxypyridin-4-yl)phenyl)-3-oxo-3,5,6,7,8,9-hexahydro-2H-6,9-epiminocyclohepta[c]pyridazine-10-carboxamide]: under setting [1], the IC50 lay in the range of 500 to 5000 nM.

For `CNCCOc1ccc(-c2cc(F)c(NC(=O)N3[C@H]4CC[C@@H]3c3ccnc(F)c3C4)cc2Cl)cn1` [Compound 300, (5R,8S)—N-(5-Chloro-2-fluoro-4-(6-(2-(methylamino)ethoxy)pyridin-3-yl)phenyl)-1-fluoro-6,7,8,9-tetrahydro-5H-5,8-epiminocyclohepta[c]pyridine-10-carboxamide], the IC50 under setting [1] lay within 500 to 5000 nM.

In the case of `CN(C)CCOc1ccc(-c2cc(F)c(NC(=O)N3[C@H]4CC[C@@H]3c3ccnc(F)c3C4)cc2Cl)cn1` [Compound 301, (5R,8S)-N-(5-Chloro-4-(6-(2-(dimethylamino)ethoxy)pyridin-3-yl)-2-fluorophenyl)-1-fluoro-6,7,8,9-tetrahydro-5H-5,8-epiminocyclohepta[c]pyridine-10-carboxamide], the IC50 was less than 500 nM.

Consider `O=C(Nc1cc(Cl)c(COc2ccc3nonc3c2)cc1F)N1[C@H]2CC[C@@H]1c1n[nH]c(=O)cc1C2` [Compound 302, (6S,9R)-N-(4-((Benzo[c][1,2,5]oxadiazol-5-yloxy)methyl)-5-chloro-2-fluorophenyl)-3-oxo-3,5,6,7,8,9-hexahydro-2H-6,9-epiminocyclohepta[c]pyridazine-10-carboxamide], for which the IC50 was less than 500 nM.

Consider `COCCOc1ccc(-c2cc(F)c(NC(=O)N3[C@H]4CC[C@@H]3c3n[nH]c(=O)cc3C4)cc2Cl)cn1` [Compound 303, (6S,9R)-N-(5-Chloro-2-fluoro-4-(6-(2-methoxyethoxy)pyridin-3-yl)phenyl)-3-oxo-3,5,6,7,8,9-hexahydro-2H-6,9-epiminocyclohepta[c]pyridazine-10-carboxamide], for which the IC50 was less than 500 nM.

For the compound `CO[C@H]1C[C@@H](Oc2ccc(-c3cc(F)c(NC(=O)N4[C@H]5CC[C@@H]4c4n[nH]c(=O)cc4C5)cc3Cl)cn2)C1` [Compound 304, (6S,9R)-N-(5-Chloro-2-fluoro-4-(6-((1s,3S)-3-methoxycyclobutoxy)pyridin-3-yl)phenyl)-3-oxo-3,5,6,7,8,9-hexahydro-2H-6,9-epiminocyclohepta[c]pyridazine-10-carboxamide], the IC50 was less than 500 nM.

In the case of `O=C(Nc1cc(Cl)c(-c2ccc(OCC(F)F)nc2)cc1F)N1[C@H]2CC[C@@H]1c1n[nH]c(=O)cc1C2` [Compound 305, (6S,9R)-N-(5-Chloro-4-(6-(2,2-difluoroethoxy)pyridin-3-yl)-2-fluorophenyl)-3-oxo-3,5,6,7,8,9-hexahydro-2H-6,9-epiminocyclohepta[c]pyridazine-10-carboxamide], the IC50 is less than 500 nM.

For `CO[C@H]1C[C@H](Oc2ccc(-c3cc(F)c(NC(=O)N4[C@H]5CC[C@@H]4c4n[nH]c(=O)cc4C5)cc3Cl)cn2)C1` [Compound 306, (6S,9R)-N-(5-Chloro-2-fluoro-4-(6-((1r,3R)-3-methoxycyclobutoxy)pyridin-3-yl)phenyl)-3-oxo-3,5,6,7,8,9-hexahydro-2H-6,9-epiminocyclohepta[c]pyridazine-10-carboxamide], the IC50 is less than 500 nM.

Regarding `O=C(Nc1cc(Cl)c(-c2ccc(OC(CF)CF)nc2)cc1F)N1[C@H]2CC[C@@H]1c1n[nH]c(=O)cc1C2` [Compound 307, (6S,9R)-N-(5-Chloro-4-(6-((1,3-difluoropropan-2-yl)oxy)pyridin-3-yl)-2-fluorophenyl)-3-oxo-3,5,6,7,8,9-hexahydro-2H-6,9-epiminocyclohepta[c]pyridazine-10-carboxamide], the IC50 was less than 500 nM.

For the compound `O=C(Nc1c(F)cc(Cl)c(Cl)c1F)N1[C@H]2CC[C@@H]1c1n[nH]c(=O)cc1C2` [Compound 308, (6S,9R)-N-(3,4-Dichloro-2,6-difluorophenyl)-3-oxo-3,5,6,7,8,9-hexahydro-2H-6,9-epiminocyclohepta[c]pyridazine-10-carboxamide], the IC50 under setting [1] is 500 to 5000 nM.

With `O=C(Nc1cc(Cl)c(-c2ccnc(OCC(F)(F)F)c2)cc1F)N1[C@H]2CC[C@@H]1c1c[nH]c(=O)cc1C2` [Compound 309, (6S,9R)-N-(5-Chloro-2-fluoro-4-(2-(2,2,2-trifluoroethoxy)pyridin-4-yl)phenyl)-3-oxo-3,5,6,7,8,9-hexahydro-2H-6,9-epiminocyclohepta[c]pyridine-10-carboxamide], the IC50 is less than 500 nM.

Consider `O=C(Nc1cc(Cl)c(-c2ccnc(OCC(F)(F)F)c2)cc1F)N1[C@H]2CC[C@@H]1c1n[nH]c(=O)cc1C2` [Compound 310, (6S,9R)-N-(5-Chloro-2-fluoro-4-(2-(2,2,2-trifluoroethoxy)pyridin-4-yl)phenyl)-3-oxo-3,5,6,7,8,9-hexahydro-2H-6,9-epiminocyclohepta[c]pyridazine-10-carboxamide], for which the IC50 was less than 500 nM.

Turning to `O=C(Nc1cc(Cl)c(-c2cncc(CF)c2)cc1F)N1[C@H]2CC[C@@H]1c1n[nH]c(=O)cc1C2` [Compound 311, (6S,9R)—N-(5-Chloro-2-fluoro-4-(5-(fluoromethyl)pyridin-3-yl)phenyl)-3-oxo-3,5,6,7,8,9-hexahydro-2H-6,9-epiminocyclohepta[c]pyridazine-10-carboxamide], the IC50 was less than 500 nM.

Consider `O=C(Nc1cc(Cl)c(-c2ccc(C(F)(F)F)nc2)cc1F)N1[C@H]2CC[C@@H]1c1c[nH]c(=O)cc1C2` [Compound 312, (6S,9R)-N-(5-Chloro-2-fluoro-4-(6-(trifluoromethyl)pyridin-3-yl)phenyl)-3-oxo-3,5,6,7,8,9-hexahydro-2H-6,9-epiminocyclohepta[c]pyridine-10-carboxamide], for which the IC50 was less than 500 nM.
